Source: US8741931B2, “Kinase inhibitors” (priority 2007, dated 2014)
Like-named read-outs stand apart in the source and are kept apart here.

Assays:
PKC delta kinase = PKC delta kinase (Homo sapiens, UniProt Q05655); experiment: PKC Delta (coupled enzyme assay); assay type: biochemical
Protocol: (§1) An assay buffer solution was prepared which consisted of 100 mM HEPES (pH 7.5), 10 mM MgCl2, 25 mM NaCl, 0.1 mM EDTA and 0.01% Brij. […] To 16 μL of this enzyme buffer, in a 384 well plate, was added 1 μL of VRT stock solution in DMSO. The mixture was allowed to equilibrate for 10 mins at 30° C. […] Ki values were calculated from initial rate data by non-linear regression using the Prism software package (Prism 4.0a, Graphpad Software, San Diego, Calif.).

PKC alpha kinase = PKC alpha kinase (Homo sapiens, UniProt P17252); experiment: PKC Alpha (coupled enzyme assay); assay type: biochemical; conditions: 130 μM ATP, 4.5 nM PKC alpha
Protocol: as §1, with “EDTA, 100 μM CaCl2” for “EDTA”

[1] = 150 μM ATP, 46 nM PKC delta, read-out: Ki PKC delta

Sequence of PKC delta kinase (Q05655 whole entry): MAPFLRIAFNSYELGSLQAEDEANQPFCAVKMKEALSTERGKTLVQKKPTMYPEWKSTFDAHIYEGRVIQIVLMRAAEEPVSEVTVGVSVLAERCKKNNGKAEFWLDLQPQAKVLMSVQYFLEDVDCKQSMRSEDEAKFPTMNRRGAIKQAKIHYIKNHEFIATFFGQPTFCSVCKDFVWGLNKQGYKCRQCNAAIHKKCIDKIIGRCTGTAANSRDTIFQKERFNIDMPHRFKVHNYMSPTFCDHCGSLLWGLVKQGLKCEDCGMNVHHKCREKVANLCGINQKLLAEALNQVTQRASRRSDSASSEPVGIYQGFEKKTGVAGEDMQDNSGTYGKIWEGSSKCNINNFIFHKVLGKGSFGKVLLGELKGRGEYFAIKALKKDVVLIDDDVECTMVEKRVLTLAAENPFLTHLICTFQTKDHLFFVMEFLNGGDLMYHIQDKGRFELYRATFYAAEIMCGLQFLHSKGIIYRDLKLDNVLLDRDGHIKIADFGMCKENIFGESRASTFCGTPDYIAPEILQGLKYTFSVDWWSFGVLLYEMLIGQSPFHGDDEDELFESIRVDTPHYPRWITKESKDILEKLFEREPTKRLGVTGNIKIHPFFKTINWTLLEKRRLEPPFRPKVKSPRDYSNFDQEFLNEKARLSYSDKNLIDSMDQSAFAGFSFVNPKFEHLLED

Ki (PKC delta kinase; [1]) [nM] | Ki (PKC alpha kinase) [nM] | Ki (PKC delta kinase) [nM] | SMILES
50 to 500 |  |  | Nc1ncccc1C(=O)c1nc(N2CCN[C@@H](c3ccccc3)C2)ccc1C(F)(F)F [compound 448]
 | < 50 |  | CC(C)C[C@H]1CN(c2ccc(C(F)(F)F)c(C(=O)c3cccnc3N)n2)C[C@@H](C)N1 [compound 490]
 | < 50 |  | C=C(F)c1ccc(N2CCN[C@@H](c3ccccc3)C2)nc1C(=O)c1cccnc1N [compound 475]
50 to 500 |  |  | Nc1ncc(Cl)cc1C(=O)c1nc(N2CCNC(c3ccccc3)C2)ccc1C(F)(F)F (centres unmarked) [compound 496]
50 to 500 | 500 to 2800 |  | CC(C)(F)CC1CN(c2ccc(C(F)(F)F)c(C(=O)c3cccnc3N)n2)CCN1 (centres unmarked) [compound 464]
> 2800 | > 2800 |  | NCC1CCC(CNc2ccc(C(F)(F)F)c(C(=O)c3cccnc3N)n2)CC1 (centres unmarked) [compound 451]
> 2800 | > 2800 |  | Nc1ncccc1C(=O)c1nc(OCC(N)C2CCOCC2)ccc1C(F)(F)F (centres unmarked) [compound 433]
50 to 500 |  |  | CC(C)CC(C)(N)CNc1ccc(C(F)(F)F)c(C(=O)c2cccnc2N)n1 (centres unmarked) [compound 443]
50 to 500 |  |  | CC(C)(O)CC1CN(c2ccc(C(F)(F)F)c(C(=O)c3cccnc3N)n2)CCN1 (centres unmarked) [compound 459]
50 to 500 |  |  | CCCC1CN(c2ccc(C(F)(F)F)c(C(=O)c3cccnc3N)n2)CCCN1 (centres unmarked) [compound 437]
> 2800 | > 2800 |  | CC(C)(C)C1CN(c2ccc(C(F)(F)F)c(C(=O)c3cccnc3N)n2)CCN1 (centres unmarked) [compound 456]
50 to 500 |  |  | Nc1ncccc1C(=O)c1nc(N2CCNC(CC3CC3)C2)ccc1C(F)(F)F (centres unmarked) [compound 441]
50 to 500 |  |  | Nc1ncccc1C(=O)c1nc(N2CCNC(C3CC3)C2)ccc1C(F)(F)F (centres unmarked) [compound 442]
50 to 500 |  |  | CC[C@@](CN)(CNc1ccc(C(F)(F)F)c(C(=O)c2cccnc2N)n1)c1ccccc1 [compound 462]
50 to 500 |  |  | CCC1CN(c2ccc(C(F)(F)F)c(C(=O)c3cccnc3N)n2)CCN1 (centres unmarked) [compound 432]
50 to 500 |  |  | CC(C)[C@H]1CN(c2ccc(C(F)(F)F)c(C(=O)c3cccnc3N)n2)C[C@H](c2ccccc2)N1 [compound 450]
50 to 500 | > 2800 |  | Nc1ncccc1C(=O)c1nc(N2CCNC(C(F)(F)F)C2)ccc1C(F)(F)F (centres unmarked) [compound 477]
 | < 50 |  | CC[C@@H]1CN(c2ccc(C(F)(F)F)c(C(=O)c3cccnc3N)n2)C[C@H](CC(C)C)N1 [compound 488]
 | < 50 |  | C=C(F)c1ccc(N2CCNC(c3ccccc3)C2)nc1C(=O)c1cccnc1N (centres unmarked) [compound 457]

Ki (PKC delta kinase; [1]) [nM] | Ki (PKC alpha kinase) [nM] | Ki (PKC delta kinase) [nM] | SMILES
50 to 500 |  |  | CC[C@H]1CN(c2ccc(C(F)(F)F)c(C(=O)c3cccnc3N)n2)C[C@H](C(C)C)N1 [compound 473]
50 to 500 |  |  | CCC(N)(COc1ccc(C(F)(F)F)c(C(=O)c2cccnc2N)n1)c1ccccc1 (centres unmarked) [compound 440]
50 to 500 |  |  | CC(C)C(O)C1CN(c2ccc(C(F)(F)F)c(C(=O)c3cccnc3N)n2)CCN1 (centres unmarked) [compound 461]
50 to 500 | 500 to 2800 |  | CC(N)(CNc1ccc(C(F)(F)F)c(C(=O)c2cccnc2N)n1)Cc1ccccc1 (centres unmarked) [compound 452]
500 to 2800 | > 2800 |  | CC(C)(C)[C@H](N)COc1ccc(C(F)(F)F)c(C(=O)c2cccnc2N)n1 [compound 422]
 | < 50 |  | Nc1ncccc1C(=O)c1nc(N2CCNC(c3cccc(Cl)c3)C2)ccc1C(F)(F)F (centres unmarked) [compound 497]
50 to 500 | 500 to 2800 |  | CC#Cc1ccc(N2CCN[C@H](c3ccccc3)C2)nc1C(=O)c1cccnc1N [compound 465]
 | < 50 |  | CCC[C@@H]1CN(c2ccc(C(F)(F)F)c(C(=O)c3cccnc3N)n2)C[C@H](CC(C)C)N1 [compound 494]
50 to 500 |  |  | Nc1ncccc1C(=O)c1nc(OCCC(N)c2ccccc2)ccc1C(F)(F)F (centres unmarked) [compound 427]
50 to 500 |  |  | CC(C)C[C@H]1CN(c2ccc(C(F)(F)F)c(C(=O)c3cccnc3N)n2)CC2(CCC2)N1 [compound 471]
50 to 500 |  |  | C[C@@H]1CNCCN1c1ccc(C(F)(F)F)c(C(=O)c2cccnc2N)n1 [compound 484]
 | < 50 |  | CC[C@](CN)(CNc1ccc(C(F)(F)F)c(C(=O)c2cccnc2N)n1)c1ccccc1 [compound 463]
50 to 500 |  |  | CCC(N)(CNc1ccc(C(F)(F)F)c(C(=O)c2cccnc2N)n1)c1ccccc1 (centres unmarked) [compound 444]
 | < 50 |  | NCC(CNc1ccc(C(F)(F)F)c(C(=O)c2cccnc2N)n1)c1ccccc1 (centres unmarked) [compound 431]
50 to 500 |  |  | C[C@H]1CN(c2ccc(C(F)(F)F)c(C(=O)c3cccnc3N)n2)CCN1 [compound 478]
50 to 500 |  |  | CCCC1CN(c2ccc(C(F)(F)F)c(C(=O)c3cccnc3N)n2)CCN1 (centres unmarked) [compound 434]
 | < 50 |  | CC(C)C[C@H]1CN(c2ccc(-c3ccccc3F)c(C(=O)c3cccnc3N)n2)CCN1 [compound 435]
50 to 500 |  |  | C=C(F)c1ccc(N2CCN[C@H](c3ccccc3)C2)nc1C(=O)c1cccnc1N [compound 474]
500 to 2800 |  |  | COCC1CN(c2ccc(C(F)(F)F)c(C(=O)c3cccnc3N)n2)CCN1 (centres unmarked) [compound 455]

Second part, the compound before the results:

SMILES | Ki (PKC delta kinase; [1]) [nM] | Ki (PKC alpha kinase) [nM] | Ki (PKC delta kinase) [nM]
Nc1ncc(Br)cc1C(=O)c1cccc(N2CCC(N3CCCC3)CC2)n1 [compound 121] | 50 to 500 |  | 
Nc1ncc(Br)cc1C(=O)c1cccc(N2CCCN(CC3CC3)CC2)n1 [compound 113] | 50 to 500 |  | 
Nc1ncccc1C(=O)c1nc(N2CC3CCC(C2)N3)ccc1C(F)(F)F [compound 466] | 50 to 500 |  | 
Cc1ccc(-c2ccc(N3CCNCC3)nc2C(=O)c2cccnc2N)o1 [compound 470] | 50 to 500 | > 2800 | 
Nc1ncccc1C(=O)c1cccc(N2CCCN(C(=O)CC(F)(F)F)CC2)n1 [compound 23] | 50 to 500 |  | 
Cn1cc(-c2cccc(C(=O)c3cccnc3N)n2)cn1 [compound 292] | > 2800 |  | 
Nc1ncccc1C(=O)c1cccc(N2CCCN(CC3CC3)CC2)n1 [compound 117] | 50 to 500 |  | 
Cc1ccc(N2CCCNCC2)nc1C(=O)c1cccnc1N [compound 209] | 500 to 2800 | 500 to 2800 | 
Cc1cnc(N)c(C(=O)c2nc(N3CCN[C@@H](CC(C)C)C3)ccc2C(F)(F)F)c1 [compound 499] | 50 to 500 |  | 
C=Cc1cnc(N)c(C(=O)c2nc(N3CCN[C@@H](CC(C)C)C3)ccc2C(F)(F)F)c1 [compound 487] | 50 to 500 | < 50 | 
Cc1ccccc1C(=O)N1CCCN(c2cccc(C(=O)c3cccnc3N)n2)CC1 [compound 89] | > 2800 | 500 to 2800 | 
Nc1ncc(C(F)(F)F)cc1C(=O)c1cccc(N2CCCNCC2)n1 [compound 140] | 50 to 500 |  | 
CC(C)N1CCCN(c2cccc(C(=O)c3cccnc3N)n2)CC1 [compound 116] | 50 to 500 |  | 
CC(C)(C)CN1CCCN(c2cccc(C(=O)c3cccnc3N)n2)CC1 [compound 126] | 500 to 2800 |  | 
CC(C)C[C@H]1CN(c2ccc(C(F)(F)F)c(C(=O)c3cc(Cl)cnc3N)n2)CCN1 [compound 480] | 50 to 500 |  | 
Cc1ccsc1C(=O)N1CCCN(c2cccc(C(=O)c3cccnc3N)n2)CC1 [compound 27] | 500 to 2800 |  | 
C=C(F)c1ccc(N2CCN[C@@H](CC(C)C)C2)nc1C(=O)c1cccnc1N [compound 424] |  | < 50 | 
C=C(F)c1ccc(N2CCNC(C(F)(F)F)C2)nc1C(=O)c1cccnc1N (centres unmarked) [compound 504] |  | 500 to 2800 | 

SMILES | Ki (PKC delta kinase; [1]) [nM] | Ki (PKC alpha kinase) [nM] | Ki (PKC delta kinase) [nM]
C=C(F)c1ccc(N2CCN[C@@H](CC(C)(C)F)C2)nc1C(=O)c1cccnc1N [compound 506] | 50 to 500 | 500 to 2800 | 
CC(C)C(=O)N1CCCN(c2cccc(C(=O)c3cc(Br)cnc3N)n2)CC1 [compound 71] | 500 to 2800 |  | 
CC1CCCCC1C(=O)N1CCCN(c2cccc(C(=O)c3cccnc3N)n2)CC1 (centres unmarked) [compound 93] | > 2800 |  | 
CC(C)C[C@H]1CN(c2ccc(C(F)(F)F)c(C(=O)c3cc(Br)cnc3N)n2)CCN1 [compound 479] | 50 to 500 |  | 
COCC#Cc1cnc(N)c(C(=O)c2cccc(N3CCCNCC3)n2)c1 [compound 138] | 50 to 500 |  | 
C=C(F)c1ccc(N2CCNC(c3cccc(Cl)c3)C2)nc1C(=O)c1cccnc1N (centres unmarked) [compound 476] |  | < 50 | 
CCc1cnc(N)c(C(=O)c2nc(N3CCN[C@@H](CC(C)C)C3)ccc2C(F)(F)F)c1 [compound 486] | 50 to 500 |  | 
CCC(=O)N1CCCN(c2cccc(C(=O)c3cccnc3N)n2)CC1 [compound 20] | 500 to 2800 |  | 
CCc1cnc(N)c(C(=O)c2cccc(N3CCCNCC3)n2)c1 [compound 105] | 50 to 500 |  | 
Nc1ncc(Br)cc1C(=O)c1cccc(N2CCCN(C(=O)Cc3cccc(O)c3)CC2)n1 [compound 70] | 500 to 2800 |  | 
Cc1sc(N2CCN[C@@H](CC(C)C)C2)nc1C(=O)c1cccnc1N [compound 505] | 50 to 500 |  | 
CN1CCCN(c2cccc(C(=O)c3cccnc3N)n2)CC1 [compound 82] |  |  | 500 to 2800
Nc1ncccc1C(=O)c1cccc(N2CCCN(CCc3ccccc3)CC2)n1 [compound 120] | 500 to 2800 |  | 
CCN1CCCN(c2cccc(C(=O)c3cc(Br)cnc3N)n2)CC1 [compound 115] | 50 to 500 |  | 
Cc1ccsc1CN1CCCN(c2cccc(C(=O)c3cccnc3N)n2)CC1 [compound 106] | 500 to 2800 |  | 
Nc1ncc(Br)cc1C(=O)c1nc(N2CCC(N)CC2)cs1 [compound 134] | 50 to 500 |  | 
CC(C)(C)CCN1CCCN(c2cccc(C(=O)c3cc(Br)cnc3N)n2)CC1 [compound 76] | 500 to 2800 |  | 
